Assay results taken from ChEMBL document CHEMBL1201862, “PubChem BioAssay data set” (2004).
Activity calls are given as the source filed them.

Assays:
[1] = biological target: T1, Sentrin-specific protease 6 (Homo sapiens, UniProt Q9GZR1); type: functional;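 note: Luminescence-based dose-response confirmatory assay of SENP6 inhibition, following up an ultra-high-throughput screen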
T1 sequence (Q9GZR1 whole entry): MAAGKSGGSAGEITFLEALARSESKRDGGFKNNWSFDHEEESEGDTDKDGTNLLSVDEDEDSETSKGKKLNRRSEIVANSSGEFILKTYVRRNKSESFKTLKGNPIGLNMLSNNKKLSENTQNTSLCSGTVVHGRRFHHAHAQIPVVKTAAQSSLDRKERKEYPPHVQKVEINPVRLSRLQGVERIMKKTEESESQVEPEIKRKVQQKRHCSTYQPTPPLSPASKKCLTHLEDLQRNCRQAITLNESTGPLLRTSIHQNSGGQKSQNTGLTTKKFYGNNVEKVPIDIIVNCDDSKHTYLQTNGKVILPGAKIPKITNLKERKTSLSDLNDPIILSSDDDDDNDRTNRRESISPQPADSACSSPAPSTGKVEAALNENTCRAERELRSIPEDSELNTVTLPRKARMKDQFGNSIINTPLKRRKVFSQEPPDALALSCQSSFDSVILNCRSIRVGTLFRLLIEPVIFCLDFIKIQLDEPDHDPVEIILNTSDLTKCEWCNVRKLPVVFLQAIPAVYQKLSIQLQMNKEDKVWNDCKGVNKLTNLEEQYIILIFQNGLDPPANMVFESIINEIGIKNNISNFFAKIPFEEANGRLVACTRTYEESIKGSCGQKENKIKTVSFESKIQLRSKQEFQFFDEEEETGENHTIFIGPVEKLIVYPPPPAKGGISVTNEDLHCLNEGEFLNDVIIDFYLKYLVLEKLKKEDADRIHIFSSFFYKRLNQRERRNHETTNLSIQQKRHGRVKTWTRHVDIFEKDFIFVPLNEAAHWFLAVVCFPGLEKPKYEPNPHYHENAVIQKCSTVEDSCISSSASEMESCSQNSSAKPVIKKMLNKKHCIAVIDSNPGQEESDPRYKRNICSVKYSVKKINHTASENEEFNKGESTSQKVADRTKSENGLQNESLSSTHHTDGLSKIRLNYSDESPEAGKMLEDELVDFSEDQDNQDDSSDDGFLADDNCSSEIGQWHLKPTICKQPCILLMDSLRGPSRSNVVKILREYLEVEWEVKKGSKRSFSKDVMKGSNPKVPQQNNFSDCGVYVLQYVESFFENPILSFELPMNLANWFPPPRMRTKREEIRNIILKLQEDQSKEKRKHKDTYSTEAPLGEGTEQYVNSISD

[2] = biological target: T2, Polyadenylate-binding protein 1 (Homo sapiens, UniProt P11940); assay: MLLE domain peptide-binding blockers, IC50 – biochemical, fluorescence polarization, FITC-PAM2 peptide, dose response (AID 602259); type: functional; details: read-out: IC50_Mean
T2 sequence (P11940 whole entry, the tested form may be a part): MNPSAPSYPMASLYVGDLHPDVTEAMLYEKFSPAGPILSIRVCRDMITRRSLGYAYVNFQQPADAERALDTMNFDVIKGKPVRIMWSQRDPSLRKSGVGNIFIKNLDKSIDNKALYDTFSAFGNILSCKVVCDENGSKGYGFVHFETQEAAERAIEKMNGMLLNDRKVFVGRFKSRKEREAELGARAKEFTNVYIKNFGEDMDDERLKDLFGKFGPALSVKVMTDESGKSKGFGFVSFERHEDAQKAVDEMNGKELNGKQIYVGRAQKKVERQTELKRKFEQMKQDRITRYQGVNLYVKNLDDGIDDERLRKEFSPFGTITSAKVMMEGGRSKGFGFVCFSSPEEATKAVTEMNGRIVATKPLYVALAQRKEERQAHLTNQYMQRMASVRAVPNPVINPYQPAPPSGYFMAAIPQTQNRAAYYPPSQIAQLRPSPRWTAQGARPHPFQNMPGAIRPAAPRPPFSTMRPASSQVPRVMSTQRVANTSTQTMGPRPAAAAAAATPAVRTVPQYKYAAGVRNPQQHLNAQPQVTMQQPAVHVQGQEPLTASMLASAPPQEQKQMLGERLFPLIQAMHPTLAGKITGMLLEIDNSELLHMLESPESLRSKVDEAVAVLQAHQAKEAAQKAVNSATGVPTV

[3] = biological target: T3, Sentrin-specific protease 8 (Homo sapiens, UniProt Q96LD8); type: functional;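 note: luminescence read-out of SENP8 inhibition, dose-response confirmation following an ultra-high-throughput screen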
T3 sequence (Q96LD8 whole entry): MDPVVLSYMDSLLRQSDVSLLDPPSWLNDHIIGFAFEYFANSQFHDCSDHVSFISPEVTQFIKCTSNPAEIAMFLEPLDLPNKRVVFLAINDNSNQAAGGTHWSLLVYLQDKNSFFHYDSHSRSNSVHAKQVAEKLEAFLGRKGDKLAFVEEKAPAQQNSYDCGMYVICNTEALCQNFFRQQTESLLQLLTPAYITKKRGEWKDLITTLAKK

[4] = biological target: T4, Caspase-3 (Homo sapiens, UniProt P42574); type: functional;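 note: Dose-response selectivity test against caspase-3 for candidate inhibitors of sentrin-specific proteases (SENPs)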
T4 sequence (P42574 whole entry): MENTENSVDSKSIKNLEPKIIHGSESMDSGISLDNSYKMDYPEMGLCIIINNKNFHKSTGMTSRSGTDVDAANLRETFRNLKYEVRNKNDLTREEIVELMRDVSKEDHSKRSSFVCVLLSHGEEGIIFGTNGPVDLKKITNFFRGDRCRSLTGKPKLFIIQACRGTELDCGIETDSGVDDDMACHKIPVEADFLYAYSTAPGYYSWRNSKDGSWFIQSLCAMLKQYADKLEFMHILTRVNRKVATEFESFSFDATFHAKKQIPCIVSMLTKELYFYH

[5] = biological target: T5, Sentrin-specific protease 7 (Homo sapiens, UniProt Q9BQF6); type: functional;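 note: Luminescence-based dose-response confirmation of ultra-high-throughput screening hits, measuring inhibition of SENP7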
T5 sequence (Q9BQF6 whole entry): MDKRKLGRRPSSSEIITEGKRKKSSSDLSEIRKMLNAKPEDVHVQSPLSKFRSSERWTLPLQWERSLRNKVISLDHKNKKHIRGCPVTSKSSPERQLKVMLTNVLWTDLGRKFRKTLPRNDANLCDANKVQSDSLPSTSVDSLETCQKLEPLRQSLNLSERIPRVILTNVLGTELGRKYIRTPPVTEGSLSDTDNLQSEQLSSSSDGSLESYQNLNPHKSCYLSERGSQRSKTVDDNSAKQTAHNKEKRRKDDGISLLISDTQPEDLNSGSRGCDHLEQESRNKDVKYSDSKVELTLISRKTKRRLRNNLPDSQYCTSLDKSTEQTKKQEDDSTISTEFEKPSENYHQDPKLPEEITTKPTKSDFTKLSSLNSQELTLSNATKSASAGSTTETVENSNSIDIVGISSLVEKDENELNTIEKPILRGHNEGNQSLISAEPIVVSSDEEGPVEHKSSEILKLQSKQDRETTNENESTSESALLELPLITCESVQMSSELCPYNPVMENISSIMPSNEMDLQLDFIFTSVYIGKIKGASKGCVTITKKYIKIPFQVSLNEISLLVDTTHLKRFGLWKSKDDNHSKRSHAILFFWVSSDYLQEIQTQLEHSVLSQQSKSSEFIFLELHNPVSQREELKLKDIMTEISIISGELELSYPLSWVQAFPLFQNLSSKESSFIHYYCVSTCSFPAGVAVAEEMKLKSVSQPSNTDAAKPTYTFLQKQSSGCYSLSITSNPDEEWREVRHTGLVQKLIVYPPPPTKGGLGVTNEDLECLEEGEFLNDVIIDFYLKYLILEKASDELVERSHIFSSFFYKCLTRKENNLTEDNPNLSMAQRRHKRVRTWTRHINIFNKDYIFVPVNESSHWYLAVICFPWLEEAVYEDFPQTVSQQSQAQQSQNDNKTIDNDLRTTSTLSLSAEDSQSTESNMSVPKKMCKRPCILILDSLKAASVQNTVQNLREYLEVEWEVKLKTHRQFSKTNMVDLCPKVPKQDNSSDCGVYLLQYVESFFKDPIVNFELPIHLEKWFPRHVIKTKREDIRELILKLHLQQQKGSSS

[6] = biological target: T2, Polyadenylate-binding protein 1; assay: MLLE binding blockers, Cy5 peptide tracer – biochemical, fluorescence polarization, Cy5-PAM2 peptide, secondary, miRNA deadenylation inhibitor project, dose response (AID 602260); type: functional; details: read-out: IC50_Mean
[7] = biological target: T6, Protein skinhead-1 (Caenorhabditis elegans, UniProt P34707); type: functional
T6 sequence (P34707 whole entry): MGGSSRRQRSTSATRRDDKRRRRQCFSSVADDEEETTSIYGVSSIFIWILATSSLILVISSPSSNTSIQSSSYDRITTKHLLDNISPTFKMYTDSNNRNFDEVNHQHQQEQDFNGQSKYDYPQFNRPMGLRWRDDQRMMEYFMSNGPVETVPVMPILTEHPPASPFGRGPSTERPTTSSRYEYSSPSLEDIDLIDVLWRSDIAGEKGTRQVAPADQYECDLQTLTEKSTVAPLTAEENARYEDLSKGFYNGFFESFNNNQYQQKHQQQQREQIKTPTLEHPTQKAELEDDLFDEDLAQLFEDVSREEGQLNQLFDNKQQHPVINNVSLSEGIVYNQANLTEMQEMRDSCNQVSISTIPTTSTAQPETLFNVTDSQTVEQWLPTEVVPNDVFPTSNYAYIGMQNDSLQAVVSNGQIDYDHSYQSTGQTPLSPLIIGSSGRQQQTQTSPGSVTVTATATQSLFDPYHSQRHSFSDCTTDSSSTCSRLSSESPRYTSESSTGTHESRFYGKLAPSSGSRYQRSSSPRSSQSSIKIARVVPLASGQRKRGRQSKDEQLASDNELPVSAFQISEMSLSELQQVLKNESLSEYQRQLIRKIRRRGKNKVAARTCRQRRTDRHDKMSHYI

[8] = biological target: T7, Endoribonuclease toxin MazF (Escherichia coli K-12, UniProt P0AE70); assay: substrate-only fluorescence increase artefacts – biochemical, single-stranded RNase substrate, counter-screen for MazEF activator project, dose response (AID 588502); type: functional
T7 sequence (P0AE70 whole entry): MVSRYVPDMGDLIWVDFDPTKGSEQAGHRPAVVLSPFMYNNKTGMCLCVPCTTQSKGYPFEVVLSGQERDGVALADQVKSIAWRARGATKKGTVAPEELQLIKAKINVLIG

[9] = biological target: T7, Endoribonuclease toxin MazF; assay: activation of MazEF endoribonuclease cleavage – biochemical, fluorescence, single-stranded RNA substrate, uHTS hits, dose response (AID 588481); type: functional
[10] = system: Streptococcus; assay: GAS UMAA2166 growth inhibition – luminescence, BacTiterGlo, counter-screen for streptokinase expression inhibitor project, dose response (AID 1915); type: functional, organism-based;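 note: potency for reduction of bacterial viability or growth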
[11] = system: H4; assay: Luminescence Cell-Based Dose Response HTS to Identify Activators of 5'UTR Stem-Loop Driven Prion Protein mRNA Translation in H4 Neuroglioblastoma Cells. [Related pubchem assays: 1829 (Project Summary), 1814 (Primary HTS)]; type: functional; details: Homo sapiens
[12] = biological target: T8, Streptokinase A (Streptococcus pyogenes serotype M1, UniProt P10520); assay: viability-normalized secreted streptokinase activity reduction – plasminogen activation absorbance, OD405, dose response (AID 1914); type: functional, Streptococcus pyogenes M1 GAS;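 note: secreted streptokinase activity via plasminogen activation per viability signal from cell pellet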
T8 sequence (P10520 whole entry): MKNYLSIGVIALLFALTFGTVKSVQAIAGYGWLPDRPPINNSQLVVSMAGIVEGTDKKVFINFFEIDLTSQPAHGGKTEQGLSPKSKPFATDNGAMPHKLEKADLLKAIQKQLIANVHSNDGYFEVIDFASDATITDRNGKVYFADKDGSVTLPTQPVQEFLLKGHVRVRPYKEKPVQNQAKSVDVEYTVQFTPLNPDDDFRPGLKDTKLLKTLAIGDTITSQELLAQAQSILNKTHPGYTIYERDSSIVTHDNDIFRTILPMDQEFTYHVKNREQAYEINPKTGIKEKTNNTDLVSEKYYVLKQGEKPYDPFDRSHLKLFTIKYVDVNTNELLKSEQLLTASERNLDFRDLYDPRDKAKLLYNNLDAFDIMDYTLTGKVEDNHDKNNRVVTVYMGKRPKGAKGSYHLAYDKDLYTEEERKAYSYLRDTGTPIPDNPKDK

[13] = Luminescence Cell-Based Dose Response HTS to Identify Activators of Luciferase Translation or Activity in H4 […] Cells. [Related pubchem assays: 1829 (Project Summary), 1814 (Primary HTS)]; type: functional
[14] = Luminescence Cell-Based Dose Confirmation HTS to Identify Activators of 5'UTR Stem-Loop Driven Alpha-Synuclein mRNA Translation in H4 Neuroglioblastoma Cells. [Related pubchem assays: 1829 (Project Summary), 1814 (Primary HTS)]; type: functional
[15] = system: Streptococcus sp. 'group A'; assay: Streptococcus pyogenes SK(-)GAS viability under kanamycin – luminescence, BacTiterGlo, confirmation, counter-screen for streptokinase expression inhibitor project, dose response (AID 1900); type: functional, organism-based
[16] = biological target: Cytochrome P450 2C9 (Homo sapiens, UniProt P11712)
Cytochrome P450 2C9, sequence (P11712 whole entry): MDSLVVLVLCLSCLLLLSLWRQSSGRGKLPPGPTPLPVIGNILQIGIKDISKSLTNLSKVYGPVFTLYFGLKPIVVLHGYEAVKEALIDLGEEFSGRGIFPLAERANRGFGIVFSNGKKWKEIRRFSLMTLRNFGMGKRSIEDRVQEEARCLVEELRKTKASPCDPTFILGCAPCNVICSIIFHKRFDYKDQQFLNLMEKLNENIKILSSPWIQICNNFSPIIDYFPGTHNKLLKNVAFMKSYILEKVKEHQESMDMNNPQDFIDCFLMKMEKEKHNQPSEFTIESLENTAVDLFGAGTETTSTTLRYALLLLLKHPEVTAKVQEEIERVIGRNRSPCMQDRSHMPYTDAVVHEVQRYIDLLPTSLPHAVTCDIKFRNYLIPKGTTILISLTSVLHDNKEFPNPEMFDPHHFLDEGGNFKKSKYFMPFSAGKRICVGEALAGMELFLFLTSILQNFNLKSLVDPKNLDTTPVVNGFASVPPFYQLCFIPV

[17] = system: SN12K1; assay: cells; type: functional; details: Homo sapiens
[18] = system: P388/ADR; assay: cells; type: functional; details: Mus musculus
[19] = system: P388; assay: cells; type: functional; details: Mus musculus

Row | SMILES | EC50 [8] | EC50 [9] | GI50 [17] | GI50 [18] | GI50 [19] | further results
1 | O=C(c1ccc(F)cc1)n1c(=S)nc2ccccn21 |  |  |  |  |  | IC50 [1]: 60.4 µM (active); IC50 [2]: > 66 µM (inactive); IC50 [3]: 86.1 µM (active); IC50 [4]: 52.2 µM (active); IC50 [5]: 18.1 µM (active); IC50 [6]: > 66 µM (inactive)
2 | CCCOc1ccc(-c2nnc(-c3ccco3)o2)cc1 |  |  |  |  |  | IC50 [1]: 22.4 µM (active); IC50 [7]: 64 µM (inactive); IC50 [3]: 25.8 µM (active); IC50 [4]: 17.4 µM (active); IC50 [5]: 11.6 µM (active)
3 | CCN(CCNc1ccc([N+](=O)[O-])c2cccnc12)S(=O)(=O)c1ccccc1 | > 99 µM (inactive) | > 99 µM (inactive) |  |  |  | 
4 | CCOC(=O)c1sc(NC(=O)c2ccc3nc[nH]c3c2)nc1C |  |  |  |  |  | IC50 [1]: 5.17 µM (active); IC50 [3]: 3.4 µM (active); IC50 [4]: 7.1 µM (active); IC50 [5]: 2.47 µM (active)
5 | COc1ccc(CNC(=O)c2cc3c(=O)n4ccccc4nc3n(Cc3cccnc3)c2=N)cc1 | 47.3 µM (inactive) | 55.4 µM (inactive) |  |  |  | 
6 | O=C1/C(=C/Nc2ccc(O)cc2)c2ccccc2C(=O)N1Cc1ccccc1 | 44.3 µM (inactive) | > 99 µM (inactive) |  |  |  | EC50 [10]: 14.6 µM (active); EC50 [11]: 33 µM (active); EC50 [12]: 18.6 µM (active); EC50 [13]: 39.6 µM (active); EC50 [14]: 17.7 µM (active); EC50 [15]: 6.51 µM (active)
7 | Cc1ccc(OCC(=O)Nc2ccc(Cl)cc2)c(-n2nc3ccccc3n2)c1 | > 99 µM (inactive) | > 99 µM (inactive) |  |  |  | AC50 [16]: 2 µM (inconclusive)
8 | COC1=C2C[C@@H](C)C[C@@H](OC)[C@@H](O)[C@H](C)/C=C(\C)[C@@H](OC(N)=O)[C@H](OC)/C=C\C=C(/C)C(=O)NC(=CC1=O)C2=O |  |  | 0.11 µM (active) | 0.212 µM (active) | 0.015 µM (active) | 
9 | COCCCn1c(=O)/c(=C/c2ccccc2OC(F)F)s/c1=C(\C#N)C(=O)NCCOC | > 99 µM (inactive) | > 99 µM (inactive) |  |  |  | 
10 | CSc1nc2c(ncn2C2OCC(O)C(O)C2O)c(=O)[nH]1 (centres undefined) |  |  | > 100 µM (inactive) | > 100 µM (inactive) | > 100 µM (inactive) | 
11 | CCCCCn1cc2c3c(cccc31)C1C=C(C)CN(C)[C@@H]1C2.Cc1ccc(C(=O)OC(C(=O)O)C(OC(=O)c2ccc(C)cc2)C(=O)O)cc1 (centres undefined) |  |  | 3.56 µM (inactive) | 3.18 µM (inactive) | 2.63 µM (inactive) | 
12 | Cc1ccc2[nH]c3c(C)c4ccncc4c(C)c3c2c1 |  |  | 0.927 µM (active) | 0.933 µM (active) | 0.394 µM (active) | 
